Converted amounts (≈) assume the structure as drawn.
Experiment: physchem
Details: organic solvent or mixture, Solubility Limit
Source text: The first step was to gather solubility data on the fatty acids in readily available solvents. […] The available solvents included ethanol, isopropanol, hexane, and acetone.
The next step was to use spin-coating to apply the optimum mixture of each fatty acid/alcohol solution to microscope slides. This process began with cleaning the slide, then affixing it to the spin-coater by turning on the internal vacuum. Once the slide was in place, the chosen solution was applied by a syringe using a 0.02 micron filter. This filter was to ensure that only the pure solution and no contaminants or occasional precipitates made it onto the slide. The coated slide was then spun at 1000 rpm for thirty seconds and placed on a hot plate at 152 degrees Fahrenheit to vaporize any remaining solvent. The slide was allowed to cool for two minutes. Once cool, the slide was subjected to a simple yet effective test of hydrophobicity. This test consisted of merely placing a water droplet on the slide using a Pasteur pipet and eyeballing it to see if it even merited further characterization. This process was repeated for many slides, each time varying the type of fatty acid and the solvent as well as the concentration of the fatty acid in the solvent. […] Below is additional solubility data for Behenic Acid: […]

solubility: 300 mM (≈ 68.5 mg/mL)
SMILES: CCCCCCCCCCCCCC(=O)O [Myristic Acid]
